Tests used:
Assay in all cases: biochemical
Type in all cases: biochemical
[1] = biological target: T1, 363 human kinases (including Aurora A/B/C) (Homo sapiens, UniProt Q09013); details: DMPK, [ATP] 15 µM; for remaining activity at 0.1 µM: 100 nM; for remaining activity at 0.1 µM / remaining activity at 0.5 µM: read-out: % Enzyme Activity (relative to DMSO controls)
T1 sequence (Q09013 1-629): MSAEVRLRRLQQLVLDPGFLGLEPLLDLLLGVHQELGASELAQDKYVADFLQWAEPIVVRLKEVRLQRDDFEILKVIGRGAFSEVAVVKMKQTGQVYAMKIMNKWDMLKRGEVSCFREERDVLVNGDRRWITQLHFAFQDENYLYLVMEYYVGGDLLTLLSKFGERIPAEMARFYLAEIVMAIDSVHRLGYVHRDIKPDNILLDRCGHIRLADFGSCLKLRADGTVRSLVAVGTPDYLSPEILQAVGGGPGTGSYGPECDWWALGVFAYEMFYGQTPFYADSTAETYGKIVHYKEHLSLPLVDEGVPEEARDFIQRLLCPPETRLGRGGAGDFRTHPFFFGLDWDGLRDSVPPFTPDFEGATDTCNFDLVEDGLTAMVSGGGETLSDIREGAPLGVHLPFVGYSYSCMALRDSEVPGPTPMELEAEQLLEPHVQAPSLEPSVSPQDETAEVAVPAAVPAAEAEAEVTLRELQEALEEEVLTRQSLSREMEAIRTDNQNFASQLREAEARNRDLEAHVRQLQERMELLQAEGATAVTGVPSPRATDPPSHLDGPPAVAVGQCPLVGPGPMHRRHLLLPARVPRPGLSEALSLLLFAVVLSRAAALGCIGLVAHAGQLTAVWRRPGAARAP
Source text: (§1) However, the Aurora A/B selectivity ratios derived from our in vitro and in vivo data can be compared to prioritize inhibitors.

[2] = biological target: T2, 363 human kinases (including Aurora A/B/C) (Homo sapiens, UniProt P29322); details: EPHA8, [ATP] 100 µM; for remaining activity at 0.1 µM: 100 nM; for remaining activity at 0.1 µM / remaining activity at 0.5 µM: read-out: % Enzyme Activity (relative to DMSO controls)
T2 sequence (P29322 28-1005): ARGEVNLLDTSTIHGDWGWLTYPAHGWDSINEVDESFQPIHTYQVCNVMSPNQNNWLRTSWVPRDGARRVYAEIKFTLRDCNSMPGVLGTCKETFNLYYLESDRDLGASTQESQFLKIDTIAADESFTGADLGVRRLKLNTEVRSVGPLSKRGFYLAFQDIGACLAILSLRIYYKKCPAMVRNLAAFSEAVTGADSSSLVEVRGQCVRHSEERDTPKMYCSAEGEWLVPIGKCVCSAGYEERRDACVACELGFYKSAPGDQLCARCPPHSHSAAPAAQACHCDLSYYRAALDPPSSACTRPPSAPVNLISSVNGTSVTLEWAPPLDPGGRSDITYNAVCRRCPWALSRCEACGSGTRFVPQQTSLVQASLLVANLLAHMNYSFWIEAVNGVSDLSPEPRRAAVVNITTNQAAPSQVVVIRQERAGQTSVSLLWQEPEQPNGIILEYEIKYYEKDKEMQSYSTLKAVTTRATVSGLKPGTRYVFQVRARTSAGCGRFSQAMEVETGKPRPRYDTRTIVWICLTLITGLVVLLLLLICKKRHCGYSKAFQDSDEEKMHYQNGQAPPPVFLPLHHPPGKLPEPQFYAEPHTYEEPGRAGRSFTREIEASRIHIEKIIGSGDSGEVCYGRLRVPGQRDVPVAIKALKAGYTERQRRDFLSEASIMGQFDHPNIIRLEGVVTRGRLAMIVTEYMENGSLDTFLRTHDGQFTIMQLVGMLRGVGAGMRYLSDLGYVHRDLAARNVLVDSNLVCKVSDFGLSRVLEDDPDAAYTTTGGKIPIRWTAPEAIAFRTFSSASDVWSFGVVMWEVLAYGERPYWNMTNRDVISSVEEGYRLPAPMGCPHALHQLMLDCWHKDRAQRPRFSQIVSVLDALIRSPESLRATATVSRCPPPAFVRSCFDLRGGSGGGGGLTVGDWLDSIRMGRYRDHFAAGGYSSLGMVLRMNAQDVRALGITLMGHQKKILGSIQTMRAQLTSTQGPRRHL
Source text: as §1

[3] = biological target: 363 human kinases (including Aurora A/B/C) (Homo sapiens, UniProt P08922); details: ROS/ROS1; for remaining activity at 0.1 µM: 100 nM; for remaining activity at 0.1 µM / remaining activity at 0.5 µM: read-out: % Enzyme Activity (relative to DMSO controls)
Source text: as §1

[4] = biological target: 363 human kinases (including Aurora A/B/C) (Homo sapiens, UniProt P54764); details: EPHA4, [ATP] 30 µM; for remaining activity at 0.1 µM: 100 nM; for remaining activity at 0.1 µM / remaining activity at 0.5 µM: read-out: % Enzyme Activity (relative to DMSO controls)
Source text: as §1

[5] = biological target: 363 human kinases (including Aurora A/B/C) (Homo sapiens, UniProt O75582); details: MSK1/RPS6KA5; for remaining activity at 0.1 µM: 100 nM; for remaining activity at 0.1 µM / remaining activity at 0.5 µM: read-out: % Enzyme Activity (relative to DMSO controls)
Source text: as §1

[6] = biological target: 363 human kinases (including Aurora A/B/C) (Homo sapiens, UniProt Q15303); details: ERBB4/HER4, [ATP] 2.5 µM; for remaining activity at 0.1 µM: 100 nM; for remaining activity at 0.1 µM / remaining activity at 0.5 µM: read-out: % Enzyme Activity (relative to DMSO controls)
Source text: as §1

[7] = biological target: 363 human kinases (including Aurora A/B/C) (Homo sapiens, UniProt P12931); details: c-Src, [ATP] 100 µM; for remaining activity at 0.1 µM: 100 nM; for remaining activity at 0.1 µM / remaining activity at 0.5 µM: read-out: % Enzyme Activity (relative to DMSO controls)
Source text: as §1

[8] = biological target: 363 human kinases (including Aurora A/B/C) (Homo sapiens, UniProt P31751); details: AKT2, [ATP] 100 µM; for remaining activity at 0.1 µM: 100 nM; for remaining activity at 0.1 µM / remaining activity at 0.5 µM: read-out: % Enzyme Activity (relative to DMSO controls)
Sequence of 363 human kinases (including Aurora A/B/C) (Homo sapiens, UniProt P31751) (P31751 whole entry): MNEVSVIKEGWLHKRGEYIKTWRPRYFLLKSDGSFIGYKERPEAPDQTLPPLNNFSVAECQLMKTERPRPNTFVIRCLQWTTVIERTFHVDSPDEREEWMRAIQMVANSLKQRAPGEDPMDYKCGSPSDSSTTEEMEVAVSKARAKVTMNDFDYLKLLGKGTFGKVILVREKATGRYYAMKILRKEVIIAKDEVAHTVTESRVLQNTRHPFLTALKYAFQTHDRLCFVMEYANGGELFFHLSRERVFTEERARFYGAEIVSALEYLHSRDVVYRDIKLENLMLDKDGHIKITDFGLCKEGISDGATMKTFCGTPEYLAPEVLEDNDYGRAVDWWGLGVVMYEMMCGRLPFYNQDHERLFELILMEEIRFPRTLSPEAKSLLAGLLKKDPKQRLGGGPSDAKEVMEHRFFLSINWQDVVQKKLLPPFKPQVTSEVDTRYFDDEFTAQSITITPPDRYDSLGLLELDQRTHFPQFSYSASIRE
Source text: as §1

Sequence of 363 human kinases (including Aurora A/B/C) (Homo sapiens, UniProt O75582) (O75582 whole entry): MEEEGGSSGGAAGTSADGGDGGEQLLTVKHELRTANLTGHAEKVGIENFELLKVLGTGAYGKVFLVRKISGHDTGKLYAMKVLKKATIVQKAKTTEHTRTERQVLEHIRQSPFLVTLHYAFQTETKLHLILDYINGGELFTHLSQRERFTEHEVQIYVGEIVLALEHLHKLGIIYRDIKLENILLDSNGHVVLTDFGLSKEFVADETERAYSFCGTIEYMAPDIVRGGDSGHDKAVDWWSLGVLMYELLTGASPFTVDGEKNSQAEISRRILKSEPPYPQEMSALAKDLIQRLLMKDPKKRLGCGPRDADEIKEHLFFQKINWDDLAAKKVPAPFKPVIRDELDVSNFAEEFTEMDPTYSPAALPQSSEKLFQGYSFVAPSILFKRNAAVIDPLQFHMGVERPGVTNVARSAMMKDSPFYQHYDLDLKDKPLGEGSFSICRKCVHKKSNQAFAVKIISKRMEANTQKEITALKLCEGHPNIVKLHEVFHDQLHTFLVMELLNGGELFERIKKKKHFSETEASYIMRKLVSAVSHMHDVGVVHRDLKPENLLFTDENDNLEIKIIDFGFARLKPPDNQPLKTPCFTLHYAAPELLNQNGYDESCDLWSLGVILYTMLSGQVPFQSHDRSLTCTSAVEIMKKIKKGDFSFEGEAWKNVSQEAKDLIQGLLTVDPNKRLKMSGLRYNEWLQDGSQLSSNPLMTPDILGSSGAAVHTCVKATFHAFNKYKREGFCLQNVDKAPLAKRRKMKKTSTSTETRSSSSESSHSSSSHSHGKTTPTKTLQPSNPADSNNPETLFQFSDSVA
Sequence of 363 human kinases (including Aurora A/B/C) (Homo sapiens, UniProt P54764) (P54764 20-986): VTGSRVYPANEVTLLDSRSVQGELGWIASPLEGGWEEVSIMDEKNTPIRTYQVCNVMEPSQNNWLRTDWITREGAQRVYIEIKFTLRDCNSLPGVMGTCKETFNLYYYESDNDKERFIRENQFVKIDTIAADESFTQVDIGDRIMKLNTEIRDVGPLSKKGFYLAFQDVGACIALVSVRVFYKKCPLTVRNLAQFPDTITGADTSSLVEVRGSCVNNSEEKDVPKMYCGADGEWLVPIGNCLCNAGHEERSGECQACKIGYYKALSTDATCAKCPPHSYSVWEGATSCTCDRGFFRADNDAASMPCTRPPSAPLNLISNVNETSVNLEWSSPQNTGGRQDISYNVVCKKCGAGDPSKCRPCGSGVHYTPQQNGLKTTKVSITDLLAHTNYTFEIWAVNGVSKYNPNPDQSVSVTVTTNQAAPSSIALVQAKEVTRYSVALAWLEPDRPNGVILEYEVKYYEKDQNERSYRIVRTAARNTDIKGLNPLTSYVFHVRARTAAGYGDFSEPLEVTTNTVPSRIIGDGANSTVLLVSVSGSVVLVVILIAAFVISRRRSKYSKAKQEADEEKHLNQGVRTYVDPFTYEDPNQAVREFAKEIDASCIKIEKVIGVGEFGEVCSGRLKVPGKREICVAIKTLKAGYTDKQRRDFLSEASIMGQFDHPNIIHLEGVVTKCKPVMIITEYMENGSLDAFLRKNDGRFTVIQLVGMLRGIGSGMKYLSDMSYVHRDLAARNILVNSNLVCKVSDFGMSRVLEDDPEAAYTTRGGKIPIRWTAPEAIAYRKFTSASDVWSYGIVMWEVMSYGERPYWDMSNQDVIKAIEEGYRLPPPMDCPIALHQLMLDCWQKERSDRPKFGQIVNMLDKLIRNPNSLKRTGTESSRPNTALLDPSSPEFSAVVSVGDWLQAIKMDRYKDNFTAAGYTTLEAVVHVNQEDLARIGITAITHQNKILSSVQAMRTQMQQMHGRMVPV
Sequence of 363 human kinases (including Aurora A/B/C) (Homo sapiens, UniProt Q15303) (Q15303 26-1308): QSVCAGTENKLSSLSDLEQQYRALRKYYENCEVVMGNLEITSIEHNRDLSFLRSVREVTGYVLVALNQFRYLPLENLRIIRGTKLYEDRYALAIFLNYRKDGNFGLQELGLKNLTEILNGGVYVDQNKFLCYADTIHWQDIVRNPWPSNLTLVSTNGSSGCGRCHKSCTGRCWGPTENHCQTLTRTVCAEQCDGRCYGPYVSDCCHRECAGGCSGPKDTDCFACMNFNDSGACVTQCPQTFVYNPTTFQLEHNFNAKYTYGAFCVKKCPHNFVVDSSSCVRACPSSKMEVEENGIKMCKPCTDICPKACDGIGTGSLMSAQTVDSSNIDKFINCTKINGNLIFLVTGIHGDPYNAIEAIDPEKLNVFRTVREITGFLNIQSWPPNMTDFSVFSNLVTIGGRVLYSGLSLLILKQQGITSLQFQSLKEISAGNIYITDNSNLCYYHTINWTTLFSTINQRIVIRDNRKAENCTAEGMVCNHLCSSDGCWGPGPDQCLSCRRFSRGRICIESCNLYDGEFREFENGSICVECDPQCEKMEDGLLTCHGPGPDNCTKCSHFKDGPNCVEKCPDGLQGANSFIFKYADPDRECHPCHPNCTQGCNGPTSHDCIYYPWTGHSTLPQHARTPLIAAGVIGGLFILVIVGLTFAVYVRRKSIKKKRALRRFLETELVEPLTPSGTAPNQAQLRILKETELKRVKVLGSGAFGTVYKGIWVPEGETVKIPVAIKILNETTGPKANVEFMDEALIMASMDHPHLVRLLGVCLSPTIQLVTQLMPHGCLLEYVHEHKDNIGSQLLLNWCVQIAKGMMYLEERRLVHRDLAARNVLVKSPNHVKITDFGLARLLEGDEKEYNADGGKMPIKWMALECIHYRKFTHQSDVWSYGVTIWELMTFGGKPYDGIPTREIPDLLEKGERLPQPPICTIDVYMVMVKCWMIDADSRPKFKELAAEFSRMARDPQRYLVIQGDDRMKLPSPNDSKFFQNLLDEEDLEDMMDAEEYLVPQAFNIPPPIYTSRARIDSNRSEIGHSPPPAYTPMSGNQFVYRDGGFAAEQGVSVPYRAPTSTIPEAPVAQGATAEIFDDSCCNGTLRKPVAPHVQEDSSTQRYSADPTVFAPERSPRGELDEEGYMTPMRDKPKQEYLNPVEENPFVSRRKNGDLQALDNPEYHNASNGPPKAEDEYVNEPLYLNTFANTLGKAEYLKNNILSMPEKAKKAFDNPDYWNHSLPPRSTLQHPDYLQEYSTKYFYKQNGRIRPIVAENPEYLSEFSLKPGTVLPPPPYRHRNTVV
Sequence of 363 human kinases (including Aurora A/B/C) (Homo sapiens, UniProt P12931) (P12931 whole entry): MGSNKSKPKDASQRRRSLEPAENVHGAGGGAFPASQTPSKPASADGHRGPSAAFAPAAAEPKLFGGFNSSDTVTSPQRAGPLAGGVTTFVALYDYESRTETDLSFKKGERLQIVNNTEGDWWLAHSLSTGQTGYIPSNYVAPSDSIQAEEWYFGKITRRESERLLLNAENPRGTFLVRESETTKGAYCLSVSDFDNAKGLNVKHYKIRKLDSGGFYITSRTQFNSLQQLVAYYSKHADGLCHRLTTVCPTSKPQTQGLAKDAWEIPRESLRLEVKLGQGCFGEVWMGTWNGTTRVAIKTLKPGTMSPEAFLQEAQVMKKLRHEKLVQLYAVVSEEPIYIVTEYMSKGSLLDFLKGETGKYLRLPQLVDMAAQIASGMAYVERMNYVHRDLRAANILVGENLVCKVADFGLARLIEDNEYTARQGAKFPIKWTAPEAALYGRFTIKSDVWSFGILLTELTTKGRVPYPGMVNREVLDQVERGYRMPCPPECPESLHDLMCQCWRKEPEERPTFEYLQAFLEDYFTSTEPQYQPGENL

| SMILES | remaining activity at 0.1 µM [1] [%] | remaining activity at 0.1 µM [2] [%] | remaining activity at 0.1 µM [3] [%] | remaining activity at 0.1 µM [4] [%] | remaining activity at 0.1 µM [5] [%] | remaining activity at 0.1 µM [6] [%] | remaining activity at 0.1 µM [7] [%] | remaining activity at 0.1 µM [8] [%] | remaining activity at 0.5 µM ([1]; 500 nM) [%] | remaining activity at 0.5 µM ([2]; 500 nM) [%] | remaining activity at 0.5 µM ([3]; 500 nM) [%] | remaining activity at 0.5 µM ([4]; 500 nM) [%] | remaining activity at 0.5 µM ([5]; 500 nM) [%] | remaining activity at 0.5 µM ([6]; 500 nM) [%] | remaining activity at 0.5 µM ([7]; 500 nM) [%] | remaining activity at 0.5 µM ([8]; 500 nM) [%] | other results |
| --- | --- | --- | --- | --- | --- | --- | --- | --- | --- | --- | --- | --- | --- | --- | --- | --- | --- |
| CCn1cc(-c2ccnc3[nH]c(-c4cccc(CN(C)C)c4)cc23)c(-c2ccc(NC(=O)N(C)C)cc2)n1 [GSK1070916] | 114 | 92 | 102 | 100 | 101 | 87.3 | 74.6 | 95.8 | – | – | – | – | – | – | – | – | – |
| O=C(O)[C@]1(Cc2cccc(Nc3nccs3)n2)CC[C@@H](Oc2cccc(Cl)c2F)CC1 [MK-5108] | 105 | 88.7 | 0.98 | 50.2 | 99.7 | 97.1 | 39.2 | 94.5 | 115 | 67.9 | 1.15 | 21.2 | 86.8 | 77.7 | 12.5 | 107 | – |
| O=C(c1cccc(Cl)c1F)N1CCN(Cc2cccc(Nc3nccs3)n2)CC1 [MK-8745] | – | – | – | – | – | – | – | – | 115 | 86.1 | 3.49 | 87.2 | 96.3 | 94.9 | 36.4 | 96.8 | % Enzyme Activity (relative to DMSO controls) ([1]; 500 nM): 114.90%; % Enzyme Activity (relative to DMSO controls) ([2]; 500 nM): 85.09%; % Enzyme Activity (relative to DMSO controls) ([3]; 500 nM): 3.19%; % Enzyme Activity (relative to DMSO controls) ([4]; 500 nM): 87.10%; % Enzyme Activity (relative to DMSO controls) ([5]; 500 nM): 93.34%; % Enzyme Activity (relative to DMSO controls) ([6]; 500 nM): 93.35%; % Enzyme Activity (relative to DMSO controls) ([7]; 500 nM): 35.90%; % Enzyme Activity (relative to DMSO controls) ([8]; 500 nM): 96.21% |

Source: paper PMC4685510, “A Cell Biologist’s Field Guide to Aurora Kinase Inhibitors” (Frontiers in Oncology, 2015)
